ChEMBL document CHEMBL1201862, “PubChem BioAssay data set” (2004)
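Assay format: 96-well plates, 48-hour exposure. GI50 = concentration required for 50% inhibition of growth.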 The source made the active and inactive calls. No stated cut-off is given here; in the data, active = GI50 up to about 1.1 µM and inactive = higher.

What was measured:
Test in all cases: inhibition of tumour cell growth, NCI panel, 48 h
UACC-257 = system: UACC-257
BT-549 = system: BT-549
U-251 = system: U-251
SF-295 = system: SF-295
SK-MEL-28 = system: SK-MEL-28
SW-620 = system: SW-620
UO-31 = system: UO-31
HOP-62 = system: HOP-62
KM12 = system: KM12
COLO 205 = system: COLO 205
SF-268 = system: SF-268
TK-10 = system: TK-10
NCI-H23 = system: NCI-H23
SR = system: SR
HT-29 = system: HT-29
NCI-H460 = system: NCI-H460
SK-MEL-2 = system: SK-MEL-2
MDA-MB-435 = system: MDA-MB-435
MDA-N = system: MDA-N
CCRF-CEM = system: CCRF-CEM

## Cc1ccc2c(c1)C(O)(c1ccccc1)CCS2 (stereo not drawn)
UACC-257
  GI50: 42 µM (inactive)
BT-549
  GI50: 27.3 µM (inactive)
U-251
  GI50: 21.7 µM (inactive)
SF-295
  GI50: 30.1 µM (inactive)
SK-MEL-28
  GI50: 37.6 µM (inactive)
SW-620
  GI50: 31 µM (inactive)
UO-31
  GI50: 19.2 µM (inactive)
HOP-62
  GI50: 33.7 µM (inactive)
KM12
  GI50: 22.6 µM (inactive)
COLO 205
  GI50: 30.3 µM (inactive)
SF-268
  GI50: 38.4 µM (inactive)
TK-10
  GI50: 32.1 µM (inactive)
NCI-H23
  GI50: 28.5 µM (inactive)
SR
  GI50: 18.3 µM (inactive)
HT-29
  GI50: 25.4 µM (inactive)
NCI-H460
  GI50: 34.8 µM (inactive)
SK-MEL-2
  GI50: 25.2 µM (inactive)
MDA-MB-435
  GI50: 27.7 µM (inactive)

## CCN(CC)CC(C)(C)C(=O)/C=C/c1ccc(/C=C/C(=O)C(C)(C)CN(CC)CC)cc1
UACC-257
  GI50: 1.62 µM (inactive)
U-251
  GI50: 0.469 µM (active)
SF-295
  GI50: 1.22 µM (inactive)
SK-MEL-28
  GI50: 0.796 µM (active)
SW-620
  GI50: 0.211 µM (active)
UO-31
  GI50: 1.8 µM (inactive)
HOP-62
  GI50: 1.95 µM (inactive)
KM12
  GI50: 0.879 µM (active)
COLO 205
  GI50: 0.339 µM (active)
SF-268
  GI50: 0.512 µM (active)
MDA-N
  GI50: 0.44 µM (active)
TK-10
  GI50: 1.19 µM (inactive)
NCI-H23
  GI50: 0.991 µM (active)
SR
  GI50: 0.0893 µM (active)
HT-29
  GI50: 0.211 µM (active)
NCI-H460
  GI50: 0.427 µM (active)
SK-MEL-2
  GI50: 1.72 µM (inactive)
MDA-MB-435
  GI50: 0.897 µM (active)
CCRF-CEM
  GI50: 0.0646 µM (active)

## C=C1C(=O)O[C@@H]2[C@H]1CC[C@H](C)[C@]1(O)CCC(=O)[C@@]21C [CORONOPILIN]
U-251
  GI50: > 10 µM (inactive)
SF-295
  GI50: > 10 µM (inactive)
SK-MEL-28
  GI50: > 10 µM (inactive)
SW-620
  GI50: > 10 µM (inactive)
UO-31
  GI50: 0.0094 µM (active)
HOP-62
  GI50: > 10 µM (inactive)
KM12
  GI50: > 10 µM (inactive)
COLO 205
  GI50: > 10 µM (inactive)
SF-268
  GI50: > 10 µM (inactive)
MDA-N
  GI50: > 10 µM (inactive)
TK-10
  GI50: > 10 µM (inactive)
NCI-H23
  GI50: 4.16 µM (inactive)
SR
  GI50: 5.73 µM (inactive)
HT-29
  GI50: > 10 µM (inactive)
SK-MEL-2
  GI50: > 10 µM (inactive)
MDA-MB-435
  GI50: > 10 µM (inactive)
CCRF-CEM
  GI50: 4.69 µM (inactive)

## CN1CCC(O)(OC(=O)C(c2ccccc2)C2(O)CCCC2)CC1 (stereo not drawn)
UACC-257
  GI50: > 100 µM (inactive)
U-251
  GI50: > 100 µM (inactive)
SF-295
  GI50: > 100 µM (inactive)
SK-MEL-28
  GI50: > 100 µM (inactive)
SW-620
  GI50: > 100 µM (inactive)
HOP-62
  GI50: > 100 µM (inactive)
KM12
  GI50: > 100 µM (inactive)
COLO 205
  GI50: > 100 µM (inactive)
SF-268
  GI50: > 100 µM (inactive)
MDA-N
  GI50: > 100 µM (inactive)
TK-10
  GI50: > 100 µM (inactive)
NCI-H23
  GI50: > 100 µM (inactive)
SR
  GI50: > 100 µM (inactive)
HT-29
  GI50: > 100 µM (inactive)
NCI-H460
  GI50: > 100 µM (inactive)
SK-MEL-2
  GI50: > 100 µM (inactive)
MDA-MB-435
  GI50: > 100 µM (inactive)
CCRF-CEM
  GI50: > 100 µM (inactive)

## C[C@@H]1CCC[C@]2(C)O[C@H]2CC[C@@](C)(O)[C@@H]2CC3=C(CO)C(=O)O[C@H]3[C@H]1O2
UACC-257
  GI50: > 50 µM (inactive)
BT-549
  GI50: > 50 µM (inactive)
U-251
  GI50: > 50 µM (inactive)
SF-295
  GI50: > 50 µM (inactive)
SK-MEL-28
  GI50: > 50 µM (inactive)
SW-620
  GI50: > 50 µM (inactive)
UO-31
  GI50: > 50 µM (inactive)
HOP-62
  GI50: > 50 µM (inactive)
KM12
  GI50: > 50 µM (inactive)
COLO 205
  GI50: > 50 µM (inactive)
SF-268
  GI50: > 50 µM (inactive)
TK-10
  GI50: > 50 µM (inactive)
NCI-H23
  GI50: > 50 µM (inactive)
HT-29
  GI50: > 50 µM (inactive)
NCI-H460
  GI50: > 50 µM (inactive)
SK-MEL-2
  GI50: > 50 µM (inactive)
MDA-MB-435
  GI50: > 50 µM (inactive)
CCRF-CEM
  GI50: 34.1 µM (inactive)

## O=C(NC(Nc1ccc(F)c(Cl)c1)(C(F)(F)F)C(F)(F)F)C(C(F)(F)F)C(F)(F)F
UACC-257
  GI50: 32.7 µM (inactive)
U-251
  GI50: 29.2 µM (inactive)
SF-295
  GI50: 36.5 µM (inactive)
SK-MEL-28
  GI50: 50.7 µM (inactive)
SW-620
  GI50: 22.1 µM (inactive)
UO-31
  GI50: 19.5 µM (inactive)
HOP-62
  GI50: > 100 µM (inactive)
KM12
  GI50: 17.9 µM (inactive)
COLO 205
  GI50: 28.5 µM (inactive)
SF-268
  GI50: 29.1 µM (inactive)
MDA-N
  GI50: 28.5 µM (inactive)
TK-10
  GI50: 36.4 µM (inactive)
NCI-H23
  GI50: 23.3 µM (inactive)
SR
  GI50: 28.2 µM (inactive)
HT-29
  GI50: 21.9 µM (inactive)
NCI-H460
  GI50: 36.1 µM (inactive)
SK-MEL-2
  GI50: 16.6 µM (inactive)
MDA-MB-435
  GI50: 26.5 µM (inactive)
CCRF-CEM
  GI50: 22.1 µM (inactive)

## CC1=C(C(=O)Nc2ccccc2)C(c2ccc(N(C)C)cc2)C(C(=O)Nc2ccccc2)=C(C)N1
UACC-257
  GI50: 8.32 µM (inactive)
U-251
  GI50: 15.9 µM (inactive)
SF-295
  GI50: 3.54 µM (inactive)
SK-MEL-28
  GI50: 12.4 µM (inactive)
SW-620
  GI50: 13.7 µM (inactive)
UO-31
  GI50: 2.37 µM (inactive)
HOP-62
  GI50: 5 µM (inactive)
KM12
  GI50: 0.964 µM (active)
COLO 205
  GI50: 1.41 µM (inactive)
SF-268
  GI50: 9.31 µM (inactive)
MDA-N
  GI50: 1.75 µM (inactive)
TK-10
  GI50: 39.4 µM (inactive)
NCI-H23
  GI50: 24.9 µM (inactive)
SR
  GI50: 11.1 µM (inactive)
HT-29
  GI50: 3.72 µM (inactive)
NCI-H460
  GI50: 1.43 µM (inactive)
SK-MEL-2
  GI50: > 70.1 µM (inactive)
MDA-MB-435
  GI50: 0.804 µM (active)
CCRF-CEM
  GI50: 3.94 µM (inactive)
